Laboratory results: the METLIN SMRT retention time set (Domingo-Almenara et al. 2019)

Assay: gradient 5% acetonitrile 3 min, to 50% in 2 min, to 85% in 15 min, held 3 min, 100 µL/min
Conditions: column: Zorbax Extend-C18 2.1 x 50 mm; eluents: water / acetonitrile, 0.1% formic acid
Summary of the method: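 Standards, all pure, were combined into mixtures of ~100 molecules and run at 100 μL/min on a Zorbax Extend-C18 column (2.1 × 50 mm, 1.8 μm) with water and acetonitrile, each containing 0.1% formic acid. A coupled quadrupole time-of-flight mass spectrometer operated in positive and negative ionization mode. Retention time values come from computationally picked adduct peaks, each inspected manually.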

Row | SMILES | RP-LC retention time
1 | O=C(c1ccc(OC(F)(F)F)cc1)N1CCN(CCn2cccn2)CC1 | 582 s
2 | Cc1cc(Nc2ncccc2S(N)(=O)=O)ccc1Cl | 908 s
3 | O=C(Nc1ccc2c(c1)OCCO2)N1CCCC1c1nc(CCOCC2CCCC2)no1 (configuration not stated) | 896 s
4 | O=C(CCC[C@@H]1[C@H]2CCCN3CCC[C@@H](CN1C(=O)c1cccs1)[C@@H]23)NCC1CC1 | 586 s
5 | Cc1cccc(Oc2nccnc2N2CCC(C(=O)NCCC3=CCCCC3)CC2)c1 | 1130 s
6 | COc1ccc2[nH]cc(CCNC(=O)C3CCCN(c4nc5ncccc5n5cccc45)C3)c2c1 (configuration not stated) | 623 s
7 | CCCNC(=O)c1cnn(-c2cc(-c3nc(C(C)(C)C)no3)ccn2)c1C | 961 s
8 | CCOCC(=O)N1CCc2nc(N3CCN(C)CC3)sc2C1 | 557 s
9 | CCC(C)NC(=O)Cn1nc(-c2nc(-c3cccc(C)c3)no2)c2ccccc21 (configuration not stated) | 1170 s
10 | O=C(CN1CCc2[nH]c3c(F)c(Cl)ccc3c(=O)c2C1)Nc1cc(F)cc(F)c1 | 699 s
11 | O=C(NCc1ccccc1C(F)(F)F)C1CCN(c2cc(N3CCOCC3)ncn2)CC1 | 670 s
12 | Cn1cnc(S(=O)(=O)N2CCC(c3noc(-c4cccnc4)n3)C2)c1 (configuration not stated) | 627 s
13 | Cc1ccc(CN2CCn3c(nn(C)c3=O)C2)nc1 | 530 s
14 | Cc1nc(C)c(C(=O)N2CCCCCCN(C)C(=O)[C@@H]3CCC[C@@H]32)s1 | 728 s
15 | O=C(Nc1ccc2c(c1)OCO2)N1CCC(n2c(-c3ccco3)nc3cccnc32)C1 (configuration not stated) | 726 s
16 | O=C(c1cccs1)N1CCCC(c2nnc(-c3ccccc3)o2)C1 (configuration not stated) | 805 s
17 | O=C(Cn1c(=O)c2cc(C3CC3)nn2c2ncccc21)NCc1ccc(Cl)cc1 | 791 s
18 | COc1ccc(NC(=O)N2CCC(n3c(-c4ccc(OC)cc4)nc4cccnc43)C2)cc1 (configuration not stated) | 709 s
19 | Cc1ccc(-c2nc(N)n(C(=O)c3ccc(C(C)(C)C)cc3)n2)cc1C | 1350 s
20 | Cc1ccc(NC(=O)C(=O)NCC(c2ccc3c(c2)OCO3)N2CCOCC2)c(C)c1 (configuration not stated) | 693 s
21 | O=C(NCCN1CCc2ccccc2C1)c1cn2nc(Cl)ccc2n1 | 618 s
22 | O=C(Cn1c(=O)cc(-c2nc(C3CC3)no2)c2ccccc21)NCc1ccccc1Cl | 956 s
23 | COCCn1c(=O)c2cc(C(=O)Nc3ccccc3)nn2c2ccccc21 | 714 s

Row | SMILES | RP-LC retention time
24 | O=C(NCC(=O)N1CCN(c2ncccn2)CC1)c1c[nH]c2ccccc12 | 615 s
25 | CCC1CN2C=NC(N3CCN(C(=O)Cc4ccccc4)CC3)=CC2=N1 (configuration not stated) | 615 s
26 | C#CCSc1nc2ccccc2c2nc(-c3ccncc3)nn12 | 977 s
27 | CCn1cc(C2=CCN(S(=O)(=O)c3cccc(F)c3)CC2)c2cccnc21 | 1020 s
28 | CCn1nccc1C(=O)N1CCCC1c1ccc(Cl)cc1 (configuration not stated) | 850 s
29 | CCNC(=O)N1CCC(c2noc(-c3ccncc3)n2)C1 (configuration not stated) | 616 s
30 | O=C(c1cnn2c(-c3ccc4c(c3)OCO4)ccnc12)N1CCN(c2ccccc2)CC1 | 864 s
31 | COc1ccc(-c2nnc(Cc3nc(-c4cccc(C)c4)no3)o2)cc1OC | 983 s
32 | Cc1oc(-c2[nH]ncc2C(=O)N(C)C)cc1S(=O)(=O)Nc1ccc(F)cc1 | 670 s
33 | COc1ccc(OC)c(S(=O)(=O)N2CCc3c(c(-c4nnc(-c5ccc(F)cc5)o4)nn3C)C2)c1 | 900 s
34 | Cc1ccc(-c2nnc(-c3cccc(S(=O)(=O)NC(C)C(=O)O)c3)o2)cc1 (configuration not stated) | 784 s
35 | C=CCNC(=O)N1CCCN(C2=NS(=O)(=O)C(c3ccc(Cl)cc3)=C2C)CC1 | 761 s
36 | COc1ccc2nc(C(=O)NCc3cc(F)ccc3F)cn2n1 | 823 s
37 | O=C(COc1coc(CN2CCc3ccccc32)cc1=O)NCc1ccc2c(c1)OCO2 | 781 s
38 | O=C(NCCN1CCOCC1)c1nnc(-c2ccc(S(=O)(=O)N3CCCCC3)cc2)o1 | 647 s
39 | CCC1(C(=O)Nc2ccc(C(C)C)cc2)CCCCC(=O)N1 (configuration not stated) | 872 s
40 | Cc1noc(-c2nc(-c3cccc(F)c3)no2)n1 | 990 s
41 | Cc1nc(CC(=O)NCc2ccc(F)cc2F)sc1C(=O)NCC(C)C | 757 s
42 | CCOC(=O)N1CCN(C(=O)CSc2ccc(-n3cccn3)nn2)CC1 | 657 s
43 | CC1CCN(C(=O)c2cn(-c3ccc(-c4nc(C5CC5)no4)cn3)cn2)CC1 | 912 s
44 | CCCn1c(=O)c(N2CCC(NC(=O)Nc3ccc(Cl)cc3)CC2)nc2ccccc21 | 1090 s
45 | COc1ccc(C(=O)N2CCN(c3cc(C(C)C)n4cnnc4n3)CC2)c(OC)c1 | 609 s
46 | CCOC(=O)c1c(NC(=O)C2CCN(S(C)(=O)=O)CC2)sc2ccccc12 | 979 s

Row | SMILES | RP-LC retention time
47 | CCN1CCn2cc(S(=O)(=O)Nc3cccc(Cl)c3)cc2C1=O | 728 s
48 | O=C(NCCC1=CCCCC1)c1ccc(-c2nccnc2N2CCCC2)cc1 | 1030 s
49 | CCc1cccc(NC(=O)C2CCN(S(=O)(=O)c3cn(C)cn3)CC2)c1 | 732 s
50 | CCCN(CC1CCOC1)C(=O)NCc1ccc(C)cc1 (configuration not stated) | 796 s
51 | O=C(C1=CN(c2cc(F)cc(F)c2)c2cc(F)ccc2S1(=O)=O)N1CCCC1 | 829 s
52 | CCNc1ncnc2sc3c(c12)CCN(Cc1ccncc1)C3 | 659 s
53 | O=C(c1ccc2c(c1)OCO2)N1CCCCC1c1nncn1CC1CC1 (configuration not stated) | 631 s
54 | COc1cc(C(=O)N2CCN(c3cc(C)c4ccccc4n3)CC2)cc(OC)c1OC | 635 s
55 | CC1CCN(C(=O)C2c3ccccc3CCN2C(=O)C(C)C)CC1 (configuration not stated) | 883 s
56 | Cc1ccsc1C(=O)NCc1ccc2c(c1)ncn2C | 597 s
57 | CO[C@H]1C(=O)N(C(C)C)[C@H]1C1CCN(C(=O)CCn2cc(C)cn2)CC1 | 654 s
58 | N#Cc1ccc(NC(=O)C(=O)c2ccc[nH]2)cc1 | 801 s
59 | COc1ccc2c(c1)C1(CCN(C(=O)Nc3ccc(F)cc3)C1)C(=O)N2 (configuration not stated) | 683 s
60 | O=C(Nc1ccccc1C(=O)NCCC1=CCCCC1)C1=CSCCO1 | 1090 s
61 | COc1ccc(-c2nnc(CC(=O)NC3CCCCCC3)o2)cc1 | 780 s
62 | COCCn1ncc(N2CCC(C(=O)NCc3ccc(C)o3)C2)cc1=O (configuration not stated) | 650 s
63 | O=C1CCCc2cc(S(=O)(=O)N3CCC(C(=O)NCCc4cccs4)CC3)ccc2N1 | 717 s
64 | COc1ccc(Nc2c(-c3ccc(C)cc3)nc3ncccn23)cc1OC | 683 s
65 | CCc1nc(-c2csc(S(=O)(=O)N3CCCC(C(=O)Nc4ccc(C#N)cc4)C3)c2)no1 (configuration not stated) | 1020 s
66 | CCc1ccc(C2=C(C)C(N3CCC(C(=O)NC)CC3)=NS2(=O)=O)cc1 | 738 s
67 | O=C(CN1CCCCC1c1nc(-c2cccc(F)c2)no1)Nc1ccccc1F (configuration not stated) | 1230 s
